Reference: patent US3962445A, “Anti-allergenic carbostyril derivatives” (Beecham Group Limited, priority 1973, dated 1976)

Tested on: PCA response
Test: rat Passive Cutaneous Anaphylaxis Test (PCA test)
Format: in vivo, rat (male Wistar)
Conditions: subcutaneous, as sodium salt
Method: Some of the 4-hydroxycarbostyrils prepared in the preceding examples were tested in the rat Passive Cutaneous Anaphylaxis Test (PCA test), described below. They were administered as their sodium salts either in pH 7.2 phosphate buffer (for soluble salts) or as a suspension in 1% methyl cellulose (for insoluble salts).
Male Wistar rats of 250-300g, were injected intraperitoneally with 0.5 ml. of Bordatella pertussis vaccine (containing 4 × 10^10 dead organism per ml) and subcutaneously with 0.5 ml. of an emulsion of 100 mg. of ovalbumin in 2 ml of saline and 3 ml. of incomplete Freunds' adjuvant. Rats were bled by cardiac puncture on day 18, the blood was pooled and separated and serum stored at -20° and thawed only once before use.
0.1 ml of each of six twofold serial dilutions of the serum in 0.9% saline were injected intradermally into separate sites on the shaved dorsal surface of 250-350 g. Male Wistar rats. 72 hours later the animals were challenged by i v injection of 0.3 ml. of 1% ovalbumin mixed with 0.1 ml of a 5% solution of pontamine sky blue dye both in isotonic saline buffered with pH. 7.2 Sorenson buffer (P P S ) The rats were killed after 20 minutes and the diameter of the blue wheals at the antibody injection sites were measured. The starting dilution of the serum was adjusted so that there was no response after challenge, at the site of injection of the highest dilution and a maximum response at the two or three lowest dilutions. Typically, six twofold serial dilutions of the serum 1/4 to […] were used.
Amounts of the compounds were administered to rats by subcutaneous injection, into the nucal region, of a solution of the compound in P.B.S. or as a suspension in 1% methyl cellulose, each amount to a test group of six animals at a specified time prior to intravenous challenge with ovalbumin.
% Inhibition of P.C.A = 100 (1 - a/b)
For those compounds having insoluble sodium salts, the salts were isolated by reaction of the free nitro compound with 2.5N sodium hydroxide and the filtered sodium salt washed free of alkali with water. The dried salts were then administered as a suspension in 1% methyl cellulose.

[1] = 0 h, time 0 mins. prior to i.v. ovalbumin challenge
[2] = 1 h, time 60 mins. prior to i.v. ovalbumin challenge
[3] = 0.5 h, time 30 mins. prior to i.v. ovalbumin challenge

SMILES	inhibition at 25 mg/kg [1]	inhibition at 100 mg/kg [1]	inhibition at 25 mg/kg [2]	inhibition at 100 mg/kg [2]	inhibition at 25 mg/kg [3]	inhibition at 100 mg/kg [3]
O=c1[nH]c2ccc(Br)cc2c(O)c1[N+](=O)[O-] [Example 8, 6-Bromo-4-hydroxy-3-nitrocarbostyril]	5%	-11%	25%	19%		
O=c1[nH]c2ccc([N+](=O)[O-])cc2c(O)c1[N+](=O)[O-] [Example 2, 3,6-Dinitro-4-hydroxycarbostyril]	4%	-14%	31%	23%		
O=c1[nH]c2c(Cl)cccc2c(O)c1[N+](=O)[O-] [Example 14, 8-Chloro-4-hydroxy-3-nitrocarbostyril]	18%	26%	42%	43%		
Cc1ccc2c(O)c([N+](=O)[O-])c(=O)[nH]c2c1 [Example 6 (b), 4-hydroxy-7-methyl-3-nitrocarbostyril]	12%	7%	1%	23%		
Cc1cc(C)c2[nH]c(=O)c([N+](=O)[O-])c(O)c2c1 [Example 11, 6,8-Dimethyl-4-hydroxy-3-nitrocarbostyril]	11%	0%	52%	51%		
O=c1c([N+](=O)[O-])c(O)c2ccccc2n1-c1ccccc1 [Example 37, 4-Hydroxy-3-nitro-1-phenylcarbostyril]	-2%	13%			1%	42%
O=c1[nH]c2ccc(Cl)cc2c(O)c1[N+](=O)[O-] [Example 3, 6-Chloro-4-hydroxy-3-nitrocarbostyril]	-39%	-30%	33%	54%		
CCn1c(=O)c([N+](=O)[O-])c(O)c2ccccc21 [Example 30, 1-Ethyl-4-hydroxy-3-nitro carbostyril]	9%	20%			34%	41%
Cc1cc2[nH]c(=O)c([N+](=O)[O-])c(O)c2cc1C [Example 15, 6,7-Dimethyl-4-hydroxy-3-nitrocarbostyril]	62%	88%	27%	54%		
Cc1cccc2[nH]c(=O)c([N+](=O)[O-])c(O)c12 [Example 6 (a), 4-Hydroxy-5-methyl-3-nitrocarbostyril]	5%	7%	1%	51%		
Cc1cc2c(O)c([N+](=O)[O-])c(=O)n(C)c2cc1C [Example 38, 4-Hydroxy-3-nitro-1,6,7-trimethylcarbostyril]	13%	53%			14%	47%
Cc1cc(C)c2c(O)c([N+](=O)[O-])c(=O)[nH]c2c1 [Example 10, 5,7-Dimethyl-4-hydroxy-3-nitrocarbostyril]	0%	22%	35%	44%		
Cc1ccc(C)c2c(O)c([N+](=O)[O-])c(=O)[nH]c12 [Example 9, 5,8-Dimethyl-4-hydroxy-3-nitrocarbostyril]	7%	22%			9%	27%
CCn1c(=O)c([N+](=O)[O-])c(O)c2cc(C)ccc21 [Example 33, 1-Ethyl-4-hydroxy-6-methyl-3-nitro carbostyril]	-12%	-1%	-5%	16%		
Cn1c(=O)c([N+](=O)[O-])c(O)c2ccc(Cl)cc21 [Example 36, 7-Chloro-4-hydroxy-1-methyl-3-nitro carbostyril]	-4%	34%	-2%	50%		
Cn1c(=O)c([N+](=O)[O-])c(O)c2ccccc21 [Example 31, 4-Hydroxy-1-methyl-3-nitro carbostyril]	21%	35%			26%	36%
CCc1ccc2[nH]c(=O)c([N+](=O)[O-])c(O)c2c1 [Example 5, 6-Ethyl-4-hydroxy-3-nitro-carbostyril]	19%	26%	13%	33%		
Cc1ccc2c(O)c([N+](=O)[O-])c(=O)[nH]c2c1C [Example 12, 7,8-Dimethyl-4-hydroxy-3-nitrocarbostyril]	9%	50%			36%	47%
Cn1c(=O)c([N+](=O)[O-])c(O)c2cc(Cl)ccc21 [Example 34, 6-Chloro-4-hydroxy-1-methyl-3-nitro carbostyril]	-5%	43%	8%	61%		
O=c1[nH]c2cc(Cl)ccc2c(O)c1[N+](=O)[O-] [Example 16, 7-Chloro-4-hydroxy-3-nitrocarbostyril]	-3%	13%			9%	63%
CCn1c(=O)c([N+](=O)[O-])c(O)c2cc(Cl)ccc21 [Example 35, 6-Chloro-1-ethyl-4-hydroxy-3-nitro carbostyril]	-8%	5%	11%	88%		
Cc1ccc2c(c1)c(O)c([N+](=O)[O-])c(=O)n2C [Example 32, 1,6-Dimethyl-4-hydroxy-3-nitro carbostyril]	-12%	16%			55%	26%
Cc1cccc2c(O)c([N+](=O)[O-])c(=O)[nH]c12 [Example 7, 4-Hydroxy-8-methyl-3-nitrocarbostyril]	23%	71%			18%	36%
CCc1cc2[nH]c(=O)c([N+](=O)[O-])c(O)c2cc1CC [Example 17, 6,7-Diethyl-4-hydroxy-3-nitrocarbostyril]	25%	32%	34%	42%		
O=c1[nH]c2ccccc2c(O)c1[N+](=O)[O-] [Example 1, 4-Hydroxy-3-nitrocarbostyril]	9%	33%			19%	40%
Cc1ccc2[nH]c(=O)c([N+](=O)[O-])c(O)c2c1 [Example 4, 4-Hydroxy-6-methyl-3-nitrocarbostyril]	14%	30%	15%	23%		
O=c1[nH]c2c(Br)cccc2c(O)c1[N+](=O)[O-] [Example 13, 8-Bromo-4-hydroxy-3-nitrocarbostyril]	36%	49%	32%	32%		
